Assay results: PubChem BioAssay AID1963835 (Molecular Pharmacology Branch, DTP, NCI, 2024)
“And” between values parts separate entries of the source, which are not always exact repeats. Equal entries are not always repeated.

Test system: 699152-130-R-J1-PDC complex spheroid viability
Assay: Anticancer human tumor 699152-130-R-J1-PDC patient-derived pancreatic carcinoma cell line growth inhibition [POLQ]
Details: for viability, T/C: stronger effect = lower value
Method: Multicellular complex tumor spheroid response to Polymerase (POL) inhibitors (novobiocin, ART-558, RP6685) in combination with a variety of drugs and investigational agents in selected tumor cell lines
The POL inhibitors (novobiocin, ART-558, and RP6685) were evaluated both individually and in combination with standard of care and investigational anticancer small molecules within a complex spheroid model of solid tumors. . Complex spheroids include a stromal component modeled by human endothelial cells (HUVEC) and fibroblasts modeled by human mesenchymal stem cells (MSCs). The concentration ranges selected for each drug and investigational agent were based upon clinically achievable concentrations if the clinical Cmax of the agent was known.
Compounds. The drugs and investigational agents: novobiocin (NSC847541), ART-558 (NSC835418), RP-6685 (NSC848927), peposertib (NSC802822), ceralasertib (NSC780249), elimusertib (NSC800525), camonsertib (NSC841442), AZD-1390 (NSC803789), olaparib (NSC753686), talazoparib (NSC767125), rucaparib (NSC756644), sotorasib (NSC818433), MRTX-1133 (NSC836407), SN-38 (NSC673596), topotecan (NSC609699), epotoside (NSC141540), doxorubicin (NSC123127), gemcitabine (NSC613327), 5-fluorouracil (NSC19893), paclitaxel (NSC125973), vemurafenib (NSC761431), MSA-2 (NSC828583), SN-011 (NSC837082), adavosertib (NSC754352), prexasertib (NSC758257), carboplatin (NSC241240) and oxaliplatin (NSC266046), were obtained from the National Cancer Institute (NCI) Developmental Therapeutics Program Chemical Repository (21). The FDA-approved anticancer drug set is available from the Developmental Therapeutics Program at https://dtp.cancer.gov/organization/dscb/obtaining/. […] The stock solutions were prepared in dimethyl sulfoxide (DMSO, Sigma-Aldrich, St. Louis, MO, cat. D2650), except for the platinum compounds which were prepared in saline (Quality Biological, Gaithersburg, MD, cat. 114-055-101), at 800-fold the tested concentration and stored at -70 degrees C prior to their use. All drugs and investigational agents were tested over a range starting from a high concentration at or near the clinical Cmax and decreasing in half-log increments. If the clinical Cmax for an agent had not been determined, the highest concentration tested was 10 microM, except for SN-38, which was tested at a high concentration of 1 microM.
Cell Culture. All cells were maintained in an incubator at 37 degrees C and 5% CO2 with 95% humidity. The PDC lines were cultured according to standard operating procedures established by the NCI PDMR (https://pdmr.cancer.gov). Table 3 of the manuscript, lists the cell lines along with the number of the three cell types plated to form the mct-spheroids and media for tumor cell growth. After thawing, all PDC lines, except 997537-175-T-J1-PDC and 415267-285-R-J2-PDC, were cultured in Matrigel-coated flasks prepared with a working solution of 1X Ham's F-12 nutrient mix, without supplementation (Thermo Fisher Scientific, cat. 11765054), 100 U/mL penicillin-streptomycin (Thermo Fisher Scientific, cat. 15140122), and 2.5% Matrigel (Corning Inc., Corning, NY, cat. 354248) for the first three passages. The two PDC lines 997537-175-T-J1-PDC and 415267-285-R-J2-PDC were cultured on uncoated flasks. The 857933-349-R-J2-PDC line was cultured in 6C/Colon 1B media containing advanced DMEM/F-12 (Thermo Fisher Scientific, cat. 12634028), 10 mM HEPES (Thermo Fisher Scientific, cat. 15630080), 1X GlutaMAX supplement (Thermo Fisher Scientific, cat. 35050061), 0.1 mg/mL primocin (InvivoGen, San Diego, CA, cat. ant-pm-2), 10% defined fetal bovine serum, heat inactivated (HyClone Laboratories Inc., Logan, UT, cat. SH30070.03HI), 50% L-WRN conditioned media (ATCC, cat. CRL-3276), 1.25 mM N-Acetyl-L-cysteine (Sigma-Aldrich, cat. A9165), 10 mM nicotinamide (Sigma-Aldrich, cat. N0636), 1X B-27 supplement (Thermo Fisher Scientific, cat. 17504044), 1X N-2 supplement (Thermo Fisher Scientific, cat. […]
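Further: spheroids exposed to agents for 7 days before viability reading.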
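Wherever viability, T/C is given: percent of DMSO vehicle control viability so 100% = vehicle and 0% = no viable signal.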

**Q.** How did the viability, T/C (compound 0.000316 µM) turn out when `Cn1ncnc1[C@H]1c2n[nH]c(=O)c3cc(F)cc(c23)N[C@@H]1c1ccc(F)cc1` was run?
**A.** Its viability, T/C is 94.3% and 91% and 102%.

**Q.** What about the viability, T/C (compound 0.001 µM) of the same molecule?
**A.** The viability, T/C was 88.8% and 78.8% and 93%.

**Q.** And the viability, T/C (compound 0.00316 µM)?
**A.** The viability, T/C was 95% and 104% and 108%.

**Q.** What about the viability, T/C (compound 0.01 µM) of the same molecule?
**A.** The viability, T/C was 80.8% and 104% and 106%.

**Q.** And the viability, T/C (compound 0.0316 µM)?
**A.** Its viability, T/C is 83.2% and 89.8% and 97.3%.

**Q.** What about the viability, T/C (compound 0.1 µM) of the same molecule?
**A.** Its viability, T/C is 86.5% and 95.5% and 92.5%.

**Q.** What about the IC50 (curve of compound) of the same molecule?
**A.** Its IC50 is > 0.1 µM.

**Q.** What does the source list for `COc1cc2cc(C(=O)CCC(=O)O)sc2cc1OC`?
**A.** viability, T/C (compound 0.0316 µM): 101% (2×) and 90.4%; viability, T/C (compound 0.1 µM): 98.7% and 97.3% and 103%; viability, T/C (compound 0.316 µM): 94.8% and 103% and 101%; viability, T/C (compound 1 µM): 102% and 96.4% and 105%; viability, T/C (compound 3.16 µM): 111% (2×) and 91.5%; viability, T/C (compound 10 µM): 99.7% and 93.3% and 99.9%; IC50 (curve of compound): > 10 µM

**Q.** Which results are given for `CC(=O)O[C@H]1C(=O)[C@@]2(C)[C@H]([C@H](OC(=O)c3ccccc3)[C@]3(O)C[C@H](OC(=O)[C@H](O)[C@@H](NC(=O)c4ccccc4)c4ccccc4)C(C)=C1C3(C)C)[C@]1(OC(C)=O)CO[C@@H]1C[C@@H]2O`?
**A.** viability, T/C (compound 0.00949 µM): 71.7% and 80.5% and 82.2%; viability, T/C (compound 0.03 µM): 56% and 69.6% and 61.2%; viability, T/C (compound 0.0949 µM): 54.2% and 56.2% and 58.5%; viability, T/C (compound 0.3 µM): 62% and 62.2% and 59.9%; viability, T/C (compound 0.949 µM): 66.9% and 69% and 60%; viability, T/C (compound 3 µM): 70.2% and 72.3% and 64.6%; IC50 (curve of compound): > 3 µM

**Q.** Which results are given for `CCCS(=O)(=O)Nc1ccc(F)c(C(=O)c2c[nH]c3ncc(-c4ccc(Cl)cc4)cc23)c1F` + Nc1ccc(C#CCN(C(=O)Cc2ncc(C(F)(F)F)cc2C(F)(F)F)c2ccc(F)cc2)nn1?
**A.** IC50 (curve of first compound, second compound 0.0316 µM): 8.52 µM; IC50 (curve of first compound, second compound 0.1 µM): 8.88 µM; IC50 (curve of first compound, second compound 0.316 µM): 8.62 µM; IC50 (curve of first compound, second compound 1 µM): 8.35 µM; IC50 (curve of first compound, second compound 3.16 µM): 9.38 µM; IC50 (curve of first compound, second compound 10 µM): > 10 µM; viability, T/C (second compound 0.0316 µM, first compound 0.0316 µM): 101%; viability, T/C (second compound 0.0316 µM, first compound 0.1 µM): 113%; viability, T/C (second compound 0.0316 µM, first compound 0.316 µM): 118%; viability, T/C (second compound 0.0316 µM, first compound 1 µM): 167%; viability, T/C (second compound 0.0316 µM, first compound 3.16 µM): 167%; viability, T/C (second compound 0.0316 µM, first compound 10 µM): 36.3%; viability, T/C (second compound 0.1 µM, first compound 0.0316 µM): 109%; viability, T/C (second compound 0.1 µM, first compound 0.1 µM): 117%; viability, T/C (second compound 0.1 µM, first compound 0.316 µM): 119%; viability, T/C (second compound 0.1 µM, first compound 1 µM): 143%; viability, T/C (second compound 0.1 µM, first compound 3.16 µM): 188%; viability, T/C (second compound 0.1 µM, first compound 10 µM): 40%; viability, T/C (second compound 0.316 µM, first compound 0.0316 µM): 111%; viability, T/C (second compound 0.316 µM, first compound 0.1 µM): 113%; viability, T/C (second compound 0.316 µM, first compound 0.316 µM): 132%; viability, T/C (second compound 0.316 µM, first compound 1 µM): 175%; viability, T/C (second compound 0.316 µM, first compound 3.16 µM): 184%; viability, T/C (second compound 0.316 µM, first compound 10 µM): 36.2%; viability, T/C (second compound 1 µM, first compound 0.0316 µM): 96.2%; viability, T/C (second compound 1 µM, first compound 0.1 µM): 116%; viability, T/C (second compound 1 µM, first compound 0.316 µM): 119%; viability, T/C (second compound 1 µM, first compound 1 µM): 133%; viability, T/C (second compound 1 µM, first compound 3.16 µM): 166%; viability, T/C (second compound 1 µM, first compound 10 µM): 35.8%; viability, T/C (second compound 3.16 µM, first compound 0.0316 µM): 114%; viability, T/C (second compound 3.16 µM, first compound 0.1 µM): 123%; viability, T/C (second compound 3.16 µM, first compound 0.316 µM): 124%; viability, T/C (second compound 3.16 µM, first compound 1 µM): 163%; viability, T/C (second compound 3.16 µM, first compound 3.16 µM): 179%; viability, T/C (second compound 3.16 µM, first compound 10 µM): 44.5%; viability, T/C (second compound 10 µM, first compound 0.0316 µM): 124%; viability, T/C (second compound 10 µM, first compound 0.1 µM): 128%; viability, T/C (second compound 10 µM, first compound 0.316 µM): 131%; viability, T/C (second compound 10 µM, first compound 1 µM): 161%; viability, T/C (second compound 10 µM, first compound 3.16 µM): 192%; viability, T/C (second compound 10 µM, first compound 10 µM): 52.9%
